The test system of this assay is cholesterol biosynthesis in HepG2 cells. Put plainly: Metabolic labeling of HepG2 cells with [3H]acetate; radio-HPLC sterol profile (inhibition of cholesterol biosynthesis). The format is cell-based, human. The following applies: HepG2; for activity at 10 µM: Homo sapiens, 24 h, Table I, sterol level normalized to normal medium (1.00), mean of 4 experiments; for activity at 10 µM / FF-MAS / cholesterol / desmosterol / lanosterol / lathosterol / zymosterol+7-dehydrocholesterol: 10 μM compound; for FF-MAS / cholesterol / desmosterol / lanosterol / lathosterol / zymosterol+7-dehydrocholesterol: Table II (arranged by sterol profile), normalized to normal medium (1.00); for all sterol levels (in words): relative to normal medium (unity). As for the experimental part: In accordance with the aims of the invention, the effect of the novel compounds on inhibition of cholesterol biosynthesis is assessed. An ex vivo method of metabolic labeling of immortal human hepatocytes is employed. The radioactively labeled early precursor of cholesterol [3H]acetate is added to cells with or without addition of an active new compound.
An ex vivo method of metabolic labeling of immortal human hepatocytes is employed. The radioactively labeled early precursor of cholesterol [3H]acetate is added to cells with or without addition of an active compound.
Cell culture incubation with potential inhibitors of cholesterol biosynthesis and statins Human hepatoma cell line (HepG2-ATCC No. HB-8065) is split in the recommended ratio (1:2-3) into 75 cm^2 cell flasks using two flasks per experimental condition. Cells are incubated at 37° C. with 5% CO2 in Dulbeco's modified Eagle medium (DMEM high (Sigma)) containing 5% calf serum (Sigma) and 1% L-glutamine (Sigma). After 24-hours-culturing in the growth medium, the medium is replaced with the one supplemented with 10 μM concentration of a LK compound, potential inhibitor of cholesterol biosynthesis. 10 μM solution of atorvastatin, inhibitor of HMG-CoA reductase, serves as a positive control.
After 24 hours the growth medium is changed and [^3H]acetate (NEN™ Life Science Products) added in a concentration of 40 μCi per ml of the medium (400 μCi per flask). After 4 hours cells are harvested using 2 ml of trypsin (Sigma) and the cell pellet is resuspended in 1 ml of distilled water. Cells are homogenized using the freeze and thaw method. From cell homogenate sterols are extracted and protein concentration determined using the Bio-Rad reagent.
Homogenates are transferred into 4 ml glass vial and sterols are extracted in 3 ml of extraction solution (75% n-heptane: 25% isopropanol (vol./vol.)) with ergosterol as an internal standard. For better extraction 100 μl of 0.3M NaH2PO4 (pH=1.0) is added. Closed vials are vigorously shaken (1800 rpm) for 2 hours. After extraction procedure vials are centrifuged (2000 g, 10 min) and the organic phase is transferred to fresh conical glass tubes. Extraction procedure is repeated using 1 ml of extraction solution for 15 min. Organic phases are pooled. Primary extracts are dried in vacuum centrifuge, redissolved in 3 ml of n-heptane, and incubated for 10 min at room temperature with mild shaking. After centrifugation (10 min, 2000 g) extracts are transferred into fresh glass tubes and stored in dark and cold.
The organic phase is dried, reconstituted in mobile phase for reversed phase HPLC separation and loaded onto a-HPLC column, Prism-RPN, 5 μm, 250×4,6 mm running in 100% acetonitrile at 1.00 ml/min at 40° C. temperature. Scintillation liquid is added after UV detection at 30 ml/h, at room temperature, to evaluate tritium labeled sterols on a radio detector.
Sterols are determined by comparing the eluted peaks with runs of commercial standards of lanosterol, ergosterol, desmosterol, zymosterol, 7-dehydrocholesterol, lathosterol and cholesterol or laboratory standards (FF-MAS-4,4-Dimethylcholesta-8(9),14,24-triene-3β-ol- and T-MAS-4,4-Dimethylcholesta8(9),24,diene-3,6-ol, Laboratory of Reproductive Biology, The Juliane Marie Center for Children, Women and Reproduction, University Hospital of Copenhagen, DK-2100 Copenhagen, Denmark). Results were normalized on ergosterol quantity and protein concentration. Results are presented as a mean from 4 separated experiments.
The influence of a 10 μM solution of novel LK-substances on cholesterol biosynthesis in the assay on HepG2 cells is presented in Table I. Compounds are arranged according to the building blocks, three of them are 2-pyridineethanols, 2-pyridineethylpiperazines and pyridinemethylpiperazines.
Normal medium pertains to cell cultures without a compound of the invention. Its sterol levels were used for normalization. 10 μM solution of atorvastatin serves as a positive control.

Where [1] appears, read: read-out: zymosterol+7-dehydrocholesterol.

Counter-ions that a name gives are not always drawn. Like-named read-outs stand apart in the source and are kept apart here.

Turning to `COc1ccc(CN2CCN(CCc3ccccc3)CC2)cn1` [LK-9106, 1-((6-Methoxypyridin-3-yl)methyl)-4-phenethylpiperazine trihydrobromide], the FF-MAS was determined as 2.00, the cholesterol came out at 0.00, the desmosterol came to 0.00 and the lanosterol is recorded as 0.52. Also, the lathosterol is reported as 0.31 and the “zymosterol+7-dehydrocholesterol” value stood at 0.46. Also, the activity at 10 µM (read-out: FF-MAS) is 200%. In addition, under “read-out: cholesterol”, the activity at 10 µM worked out at 0%. For the setting “read-out: desmosterol”, the activity at 10 µM came out at 0%. For the same molecule, the activity at 10 µM (read-out: lanosterol) was found to be 52%. The activity at 10 µM (read-out: lathosterol) worked out at 31%. The activity at 10 µM under setting [1] worked out at 46%.

Molecule `c1ccc(CCN2CCN(CCc3cccnc3)CC2)cc1` [LK-9100, 1-Phenethyl-4-(2-(pyridine-3-yl)ethyl)piperazine trihydrobromide] returned an FF-MAS of 2.41, a cholesterol of 0.00, a desmosterol of 0.00 and a lanosterol of 0.83. In addition, the lathosterol worked out at 0.30 and the “zymosterol+7-dehydrocholesterol” value is 0.74. Moreover, the activity at 10 µM (read-out: FF-MAS) worked out at 241%. Besides, the activity at 10 µM (read-out: cholesterol) was found to be 0%. Moreover, the activity at 10 µM (read-out: desmosterol) was determined as 0%. Besides, under “read-out: lanosterol”, the activity at 10 µM came to 83%. For the same molecule, the activity at 10 µM (read-out: lathosterol) was 30%. Moreover, the activity at 10 µM under setting [1] was 74%.

Regarding `c1ccc(CCN2CCN(Cc3cccnc3)CC2)cc1` [LK-9108, 1-Phenethyl-4-(pyridine-3-ylmethyl)piperazine trihydrobromide], the FF-MAS is given as 3.10, the cholesterol is 0.00, the desmosterol was found to be 0.00 and the lanosterol came to 1.10. Further, the lathosterol is 0.74 and the “zymosterol+7-dehydrocholesterol” value worked out at 1.40. For the same molecule, the activity at 10 µM (read-out: FF-MAS) is 310%. In addition, the activity at 10 µM (read-out: cholesterol) was determined as 0%. Moreover, for the setting “read-out: desmosterol”, the activity at 10 µM is 0%. The activity at 10 µM (read-out: lanosterol) turned out to be 110%. The activity at 10 µM (read-out: lathosterol) is 74%. Further, under setting [1], the activity at 10 µM stood at 140%.

In turn, `Fc1ccc(CCN2CCN(CCc3ccccn3)CC2)cc1F` [LK-9138, 1-(3,4-Difluorophenethyl)-4-(2-(pyridin-2-yl)ethyl)piperazine trihydrobromide] returned an FF-MAS of 0.70, a cholesterol of 0.01, a desmosterol of 0.07 and a lanosterol of 0.25. Besides, the lathosterol is reported as 0.08 and the “zymosterol+7-dehydrocholesterol” value was 0.21. The “all sterol levels (in words)” value (10 μM) is listed as “reduce all sterol levels below unity”. Under “read-out: FF-MAS”, the activity at 10 µM was 70%. Further, under “read-out: cholesterol”, the activity at 10 µM came out at 1%. The activity at 10 µM (read-out: desmosterol) came to 7%. Further, under “read-out: lanosterol”, the activity at 10 µM is 25%. Also, the activity at 10 µM (read-out: lathosterol) stood at 8%. For the same molecule, under setting [1], the activity at 10 µM came out at 21%.

In turn, `Cc1ccc(C(O)CN2CCN(CCc3ccccc3)CC2)cn1` (stereo not drawn) [LK-9139, 2-(4-Phenethylpiperazine-1-yl)-1-(6-methylpyridin-3-yl)ethanol trihydrobromide] gave an FF-MAS of 1.19, a cholesterol of 0.01, a desmosterol of 0.14 and a lanosterol of 0.38. In addition, the lathosterol stood at 0.15 and the “zymosterol+7-dehydrocholesterol” value came out at 0.38. Further, the activity at 10 µM (read-out: FF-MAS) is 119%. Moreover, the activity at 10 µM (read-out: cholesterol) amounted to 1%. For the same molecule, where the note is “read-out: desmosterol”, the activity at 10 µM is 14%. In addition, under “read-out: lanosterol”, the activity at 10 µM was 38%. Also, the activity at 10 µM (read-out: lathosterol) was 15%. For the same molecule, under setting [1], the activity at 10 µM turned out to be 38%.

`OC(CN1CCN(Cc2ccc(F)cc2)CC1)c1cccnc1` (stereo not drawn) [LK-9148, 2-(4-(4-Fluorobenzyl)piperazine-1-yl)-1-(pyridine-3-yl)ethanol trihydrobromide] came in with an FF-MAS of 1.25, a cholesterol of 0.14, a desmosterol of 0.38 and a lanosterol of 0.80. Moreover, the lathosterol is 0.65 and the “zymosterol+7-dehydrocholesterol” value stood at 1.44. Under “read-out: FF-MAS”, the activity at 10 µM was determined as 125%. Further, the activity at 10 µM (read-out: cholesterol) is 14%. Also, under “read-out: desmosterol”, the activity at 10 µM turned out to be 38%. The activity at 10 µM (read-out: lanosterol) turned out to be 80%. In addition, the activity at 10 µM (read-out: lathosterol) was 65%. For the same molecule, the activity at 10 µM under setting [1] came to 144%.

For the molecule `c1ccc(CCN2CCN(CCCc3cccnc3)CC2)cc1` [LK-9140, 1-Phenethyl-4-(3-(pyridine-3-yl)propyl)piperazine trihydrobromide], the FF-MAS was 0.72, the cholesterol amounted to 0.00, the desmosterol came to 0.01 and the lanosterol turned out to be 0.24. Further, the lathosterol came to 0.03 and the “zymosterol+7-dehydrocholesterol” value was found to be 0.15. For the same molecule, under “10 μM”, the “all sterol levels (in words)” value was “reduce all sterol levels below unity”. In addition, the activity at 10 µM (read-out: FF-MAS) worked out at 72%. Also, where the note is “read-out: cholesterol”, the activity at 10 µM was 0%. Besides, the activity at 10 µM (read-out: desmosterol) is 1%. The activity at 10 µM (read-out: lanosterol) was 24%. Besides, the activity at 10 µM (read-out: lathosterol) came to 3%. Also, under setting [1], the activity at 10 µM amounted to 15%.

The molecule `c1ccc(CCN2CCN(Cc3ccc(N4CCOCC4)nc3)CC2)cc1` [LK-9109B, 4-(5-((4-Phenethylpiperazin-1-yl)methyl)pyridine-2-yl)morpholine] came in with an FF-MAS of 6.50, a cholesterol of 0.00, a desmosterol of 0.29 and a lanosterol of 0.95. Further, the lathosterol is listed as 0.09 and the “zymosterol+7-dehydrocholesterol” value is on record as 1.00. Moreover, the “FF-MAS accumulation (in words)” value (10 μM) is on record as “notably accumulate FF-MAS”. The activity at 10 µM (read-out: FF-MAS) is 650%. Besides, the activity at 10 µM (read-out: cholesterol) worked out at 0%. Under “read-out: desmosterol”, the activity at 10 µM turned out to be 29%. For the same molecule, for the setting “read-out: lanosterol”, the activity at 10 µM was 95%. The activity at 10 µM (read-out: lathosterol) was found to be 9%. Under setting [1], the activity at 10 µM worked out at 100%.

Consider `c1ccc(CCN2CCN(CCc3ccncc3)CC2)cc1` [LK-9118B, 1-Phenethyl-4-(2-(pyridine-4-yl)ethyl)piperazine], for which the FF-MAS is 3.50, the cholesterol is reported as 0.00, the desmosterol was 0.47 and the lanosterol was 1.46. Further, the lathosterol is given as 0.23 and the “zymosterol+7-dehydrocholesterol” value was 0.90. Further, the activity at 10 µM (read-out: FF-MAS) came to 350%. Further, where the note is “read-out: cholesterol”, the activity at 10 µM was found to be 0%. The activity at 10 µM (read-out: desmosterol) is 47%. Besides, the activity at 10 µM (read-out: lanosterol) amounted to 146%. Where the note is “read-out: lathosterol”, the activity at 10 µM was determined as 23%. Moreover, the activity at 10 µM under setting [1] was 90%.

(Values after US20090018118A1, “HETEROCYCLIC COMPOUNDS” (priority 2005, published 2009).)
